Assay results reported in patent US20150182456A1, “HYDROGEL VACCINE FORMULATIONS” (Sigmoid Pharma Limited, priority 2012, published 2015).

Tested on: Female C57/bl6 Mice
Assay: V. Cholerae Experiment 1: immune response in fecal pellets
Type: in vivo
Conditions: oral, 2.5×10^8 bacteria, 10 μg αGalCer, 3 rounds, ELISA

`CCCCCCCCCCCCCCCCCCCCCCCCCC(=O)N[C@@H](CO[C@H]1O[C@H](CO)[C@H](O)[C@H](O)[C@H]1O)[C@H](O)[C@H](O)CCCCCCCCCCCCCC` [αGalCer, α-galactosylceramide] was tested, and the “anti Inaba-LPS IgA and IgG titres in fecal pellets” value was “effective adjuvant”.
